Patent US9707267B2, “Beta-turn peptidomimetic cyclic compounds for treating dry eye” (Mimetogen Pharmaceuticals, Inc., priority 2008, dated 2017)

What was measured:
[1] = tested on: rat conjunctival goblet cells; assay: Glycoconjugate secretion from rat conjunctival goblet cells, ELLA (Example 1); type: cell-based; details: 2 hours, mean±sem
Protocol: Cells derived from the explants were grown in RPMI 1640 supplemented with 10% fetal bovine serum (FBS) and penicillin (100 U/mL)/streptomycin (100 μg/mL) at 37° C. in a humidified 5% CO2-atmosphere for seventy-two hours. Contaminating nongoblet cells were removed by scraping them from the plate. During this time, goblet cells migrated from the pieces and began to proliferate. After one week, the goblet cells were trypsinized and plated in twenty-four well culture plates with RPMI-1640 media supplemented with 10% FBS.
To measure glycoconjugate secretion, the conjunctival goblet cells were grown to confluence and were serum deprived for two hours before addition of nerve growth factor (NGF), carbachol (Cch), compound D3, compound 3Aa and compound 3Ak for two hours. Compounds D3, 3Aa and 3Ak were administered at concentrations of 30 μm (micromolar), 10 μM, 1 μM and 0.3 μM. The vehicle used to dissolve the compounds, dimethyl sulfoxide (DMSO) was also included. DMSO was used as the basal control for the 30 μM concentration of compound, which was at 0.1% (v/v). The cholinergic agonist carbachol (Cch), added at 100 μM (micromolar), was a positive control for glycoconjugate secretion. The amount of glycoconjugate secreted into the media was measured by enzyme-linked lectin assay (ELLA). The media were collected and analyzed for amount of the lectin-detectable glycoconjugates, including mucins. The amount of secretion was measured by using the lectin UEA-I which is specific for rat conjunctival goblet cell mucins. Biotinylated UEA-I lectin and alkaline phosphatase-labeled streptavidin were used as described in Rios, J. D., et al., “Role of Neurotrophins and Neurotrophin Receptors in Rat Conjunctival Goblet Cell Secretion and Proliferation, Ophthalmology & Visual Science, 48: 1543-1551 (2007), the entire content of which is incorporated herein by reference. The cells were removed and sonicated, and the cell homogenate was analyzed for the total amount of protein by using the Bradford protein assay. […] Glycoconjugate secretion was expressed as the increase (x-fold) over basal.
Data for CGC glycoconjugate secretion and proliferation were expressed as the increase (x-fold) above basal value, which was standardized to 1.0. For example, for the 0.3 μM (micromolar), 1 μM and 10 μM doses, the CGC glycoconjugate secretion and proliferation were expressed as test compound over untreated cells. For the 30 μM dose, the CGC glycoconjugate secretion and proliferation were expressed as test compound over DMSO untreated cells. Results are expressed as the mean±sem.

[2] = tested on: cultured rat conjunctival goblet cells; assay: Goblet cell glycoconjugate secretion, ELLA with UEA-1 (Example 2); type: cell-based; details: 2 hours; for Glycoconjugate Secretion, Mean ± sem: mean of rats; for Glycoconjugate Secretion, Mean ± SD: mean of rats/plates
Protocol: The culturing of conjunctival goblet cells from explant cultures was as previously described in Shatos, M. et al., “Isolation, Characterization, and Propagation of Rat Conjunctival Goblet Cells In Vitro,” IOVS 42:1455-1464 (2001), the entire content of which is incorporated herein by reference. The tissue was finely minced and individual pieces were anchored onto scored 6-well cultures dishes in 0.5 mL of complete RPMI-1640 (supplemented with 10% FBS, 2 mM glutamine and 100 μg/mL penicillin-streptomycin) and incubated at 37° C. in a humidified 5% CO2-atmosphere. Explant cultures were refed every 2 days. Within a few days, goblet cells migrated from the pieces and began to proliferate. After approximately one week, the tissue plugs were removed and the goblet cells were allowed to grow to confluence. Cells were passaged once by trypsinization of adherent cells with 0.05% trypsin-0.53 mM EDTA (pH 7.4), and plated in 8-well Laboratory Tek chamber slides (histochemistry) or in 96 well (proliferation), 24 well (secretion), or 6 well (western blots) culture plates with complete RPMI-1640 media.
To measure cell secretion, goblet cells were grown to confluence and then serum depleted for 2 hours prior to stimulation. Cells were incubated with compound D3 at 2, 10, and 50 μM, NGF at 0.1, 1 and 10 nM, and PMA at 0.1, 1, and 10 nM in serum-free RPMI for 2 hours. Goblet cell secretion was measured using an enzyme-linked lectin assay (ELLA). Briefly, an aliquot of the cell culture supernatant was transferred to a 96-well polystyrene microtiter plate in triplicate (Corning Life Sciences #2592, Fisher Scientific, Nepean, Ont). A dilution series of bovine submaxillary mucin (BSM) (Sigma, St. Louis, Mo.) was included on each plate as the standard (standard curve data and data showing that detection of BSM is linear between 0.003 and 0.1 μg not shown). The plates were coated by evaporation at 37° C. overnight. After, the plates were washed three times with wash buffer [PBS containing 0.3% BSA, 0.05% Tween-20] then blocked for nonspecific binding with PBS containing 3% BSA and 0.05% Tween-20 at 37° C. for 1 hour. The wells were rinsed three times in wash buffer, and then incubated in 2 μg/mL biotinylated UEA-1 diluted in wash buffer (Vector Labs, Burlingame, Calif.) at 37° C. for 1 hour. The wells were rinsed three times in wash buffer, and then incubated in 1 μg/mL HRP-conjugated neutravidin diluted in wash buffer (Pierce, Rockford, Ill.) at 37° C. for 1 hour. After the wells were rinsed three times in wash buffer, the color development was performed with TMB (Promega, Madison, Wis.) and stopped with 0.5N Sulfuric acid. The absorbance was read at 450 nm on a Benchmark Plus (Biorad). The goblet cells remaining in the culture wells were either scraped in RIPA buffer [1% TritonX-100, 20 mM Tris-HCl pH 7.5, 150 mM NaCl, 1.5 mM MgCl2, 1% Na deoxycholate, 1 mM EGTA, 1 mM EDTA, 0.1% SDS, 10% glycerol, 1 mM Na vanadate, 10 mM Na fluoride, 10 mM Na pyrophosphate, complete mini EDTA-free protease inhibitors (Roche Applied Science, Indianapolis, Ind.)] or 1M Tris-buffer (pH 7.5), collected and sonicated. The amount of protein in the cell homogenate was analyzed using the Bradford protein assay kit using a dilution series of bovine serum albumin (BSA) as the standard (BioRad, Montreal, PQ). Glycoconjugate secretion was normalized to total protein in the homogenate. Data was then expressed as fold increase above basal. […]

[3] = tested on: p42/44 MAPK; assay: Activation of p42/44 MAPK in goblet cells, Western blot (Example 2); type: cell-based, rat; details: 100 nM, 5 minutes, positive control
Protocol: The activation of p42/44 MAPK was examined using Western blot techniques. Goblet cells were serum starved in serum-free RPMI for 4-6 hrs prior to the addition of PMA (100 nM), NGF (1 or 10 nM), or MIM-D3 (10 or 50 μM) for 5 minutes at 37° C. After, cells were rinsed once in cold PBS, scraped in 100 μL of 1×SDS-PAGE sample buffer [62.5 mM Tris-HCl pH 6.8, 10% glycerol, 2% SDS, 5% β-mercaptoethanol, 0.02 mg/mL bromophenol blue] and sonicated for 20 minutes. The homogenates were centrifuged at 14,900 g for 15 min at 4° C. Proteins in a […] of the supernatant were separated by SDS-PAGE (8% acrylamide gels) and transferred to nitrocellulose membranes. The membranes were blocked for 2 hours in 5% non-fat dried milk in buffer containing 20 mM Tris-HCl, pH 8.0, 150 mM NaCl, and 0.01% Tween-20 (TBST). The blots were then probed with an antibody directed against the phosphorylated form of MAPK1/2 (Calbiochem, San Diego, Calif.) at 0.1 μg/mL in TBST containing 5% BSA overnight at 4° C., followed by a 1 hour incubation in HRP-conjugated secondary anti-mouse antibody (Sigma, St. Louis, Mo.) at room temperature in TBST containing 5% non-fat dried milk. Immunoreactive bands were visualized using the enhanced chemiluminescence method (Perkin Elmer, Waltham, Mass.). The blots were stripped at 55° C. for 30 minutes in stripping buffer [62.5 mM Tris-HCl pH 6.8, 2% SDS, 0.1M β-mercaptoethanol] followed by re-probing with an antibody directed against actin (1:5000 dilution, Sigma, St. Louis, Mo.) in TBST containing 5% non-fat dried milk and incubation in HRP-conjugated secondary anti-rabbit antibody. The immunoreactive bands were digitally scanned on an EPSON scanner and analyzed using NIH ImageJ v1.38x. The amount of phosphorylated MAPK in each sample was standardized to the amount of total actin protein in the sample.
To determine if compound D3 and NGF induced glycoconjugates secretion via activation of the MAPK pathway, cultured goblet cells from 3 independent rats were stimulated by 10 and 50 μM compound D3, 1 and 10 nM NGF or PMA (100 nM, the positive control) for 5 minutes and MAPK activity was measured by western blot analysis. A representative western blot from 3 independent rat goblet cell cultures is shown in FIG. 9, and the quantification is shown in FIG. 10. There was a statistically significant effect of treatment on MAPK activation (P<0.0001). Compound D3 increased MAPK activity above basal by 2.5±0.3 fold at 10 μM and 2.2±0.5 fold at 50 μM and NGF increased MAPK activity by 2.8±0.5 at 1 nM (P<0.05) and 1.7±0.2 at 10 nM.

CC[C@H](C)[C@@H]1NC(=O)c2cc(N)ccc2OCc2ccc(C(N)=O)cc2NC(=O)[C@H](CCCCN)NC1=O [Compound 3Aa]
CGC glycoconjugate secretion ([1]; 0.3 μM): 2.1±0.3 fold above basal
CGC glycoconjugate secretion ([1]; 1 μM): 1.6±0.3 fold above basal
CGC glycoconjugate secretion ([1]; 10 μM): 1.7±0.4 fold above basal
CGC glycoconjugate secretion ([1]; 30 μM, over DMSO basal): 2.1±0.7 fold above basal

C[N+](C)(C)CCOC(N)=O [Cch, carbachol, reference compound]
CGC glycoconjugate secretion ([1]; 100 μM, positive control): 1.3±0.3 fold above basal

CCCCCCCCCCCCCC(=O)O[C@@H]1[C@@H](C)[C@@]2(O)[C@@H](C=C(CO)C[C@]3(O)C(=O)C(C)=C[C@@H]23)[C@@H]2C(C)(C)[C@]12OC(C)=O [PMA, Phorbol-12-myristate-13-acetate, reference compound]
Glycoconjugate Secretion ([2]; 0.1 nM, Rat 2): 1.39 Fold increase above basal
Glycoconjugate Secretion ([2]; 0.1 nM, Rat 2 Plate 2): 3.2 μg glycoconjugate/mg total protein
Glycoconjugate Secretion ([2]; 0.1 nM, Rat 3): 1.41 Fold increase above basal
Glycoconjugate Secretion ([2]; 0.1 nM, Rat 3 Plate 1): 6.9 μg glycoconjugate/mg total protein
Glycoconjugate Secretion, Mean ± sem ([2]; 0.1 nM): 1.40 ± 0.01 Fold increase above basal
Glycoconjugate Secretion, Mean ± SD ([2]; 0.1 nM): 5.1 ± 2.6 μg glycoconjugate/mg total protein
Glycoconjugate Secretion ([2]; 1 nM, Rat 1): 1.05 Fold increase above basal
Glycoconjugate Secretion ([2]; 1 nM, Rat 1 Plate 2): 4.1 μg glycoconjugate/mg total protein
Glycoconjugate Secretion ([2]; 1 nM, Rat 2): 1.78 Fold increase above basal
Glycoconjugate Secretion ([2]; 1 nM, Rat 2 Plate 2): 4.1 μg glycoconjugate/mg total protein
Glycoconjugate Secretion, Mean ± sem ([2]; 1 nM): 1.42 ± 0.37 Fold increase above basal
Glycoconjugate Secretion, Mean ± SD ([2]; 1 nM): 4.1 ± 0 μg glycoconjugate/mg total protein
Glycoconjugate Secretion ([2]; 10 nM, Rat 1): 1.56 Fold increase above basal
Glycoconjugate Secretion ([2]; 10 nM, Rat 1 Plate 1): 11.3 μg glycoconjugate/mg total protein
Glycoconjugate Secretion ([2]; 10 nM, Rat 1 Plate 2): 3.5 μg glycoconjugate/mg total protein
Glycoconjugate Secretion ([2]; 10 nM, Rat 2): 1.30 Fold increase above basal
Glycoconjugate Secretion ([2]; 10 nM, Rat 2 Plate 2): 3.0 μg glycoconjugate/mg total protein
Glycoconjugate Secretion ([2]; 10 nM, Rat 3): 1.24 Fold increase above basal
Glycoconjugate Secretion ([2]; 10 nM, Rat 3 Plate 1): 6.1 μg glycoconjugate/mg total protein
Glycoconjugate Secretion ([2]; 10 nM, Rat 4): 0.85 Fold increase above basal
Glycoconjugate Secretion ([2]; 10 nM, Rat 4 Plate 2): 8.4 μg glycoconjugate/mg total protein
Glycoconjugate Secretion, Mean ± sem ([2]; 10 nM): 1.30 ± 0.25 Fold increase above basal
Glycoconjugate Secretion, Mean ± SD ([2]; 10 nM): 6.5 ± 3.5 μg glycoconjugate/mg total protein
increase in mucin secretion ([2]; 0.1, 1 and 10 nM, not dose-dependent): ~1.4 fold
MAPK activity above basal [3]: 6.1±0.7 fold

N=C(N)NCCC[C@@H]1NC(=O)c2cc(N)ccc2OCc2ccc(C(N)=O)cc2NC(=O)CNC1=O [Compound 3Ak]
CGC glycoconjugate secretion ([1]; 0.3 μM): 1.4±0.3 fold above basal
CGC glycoconjugate secretion ([1]; 1 μM): 1.1±0.3 fold above basal
CGC glycoconjugate secretion ([1]; 10 μM): 1.2±0.1 fold above basal
CGC glycoconjugate secretion ([1]; 30 μM, over DMSO basal): 1.1±0.3 fold above basal
